Test results published in patent US10829516B2 (London Health Sciences Centre Research Inc., priority 2015, dated 2020).
Non-standard residues stand in square brackets, D forms with d. Residues, ends and D or L forms follow the SMILES beside them. *: point of attachment. 1Nal = N[C@@H](Cc1cccc2ccccc12)C(=O)O; d2Nal = N[C@H](Cc1ccc2ccccc2c1)C(=O)O; Benzoyl(4-F) = O=C(c1ccc(F)cc1)*; d2Thi = N[C@H](Cc1cccs1)C(=O)O; Propanoyl(2-F) = CC(F)C(=O)*; Dap = NC[C@H](N)C(=O)O; Aib = CC(C)(N)C(=O)O; Inp = O=C(O)C1CCNCC1

target: T1, GHS-R1a (Homo sapiens, UniProt Q92847); assay: Receptor-ligand competitive binding assay, HEK293/GHS-R1a cells with [125I]ghrelin as radioligand; conditions: not given
T1 construct: expressed in transfected cells; host or cells: HEK293
T1 sequence (Q92847 whole entry): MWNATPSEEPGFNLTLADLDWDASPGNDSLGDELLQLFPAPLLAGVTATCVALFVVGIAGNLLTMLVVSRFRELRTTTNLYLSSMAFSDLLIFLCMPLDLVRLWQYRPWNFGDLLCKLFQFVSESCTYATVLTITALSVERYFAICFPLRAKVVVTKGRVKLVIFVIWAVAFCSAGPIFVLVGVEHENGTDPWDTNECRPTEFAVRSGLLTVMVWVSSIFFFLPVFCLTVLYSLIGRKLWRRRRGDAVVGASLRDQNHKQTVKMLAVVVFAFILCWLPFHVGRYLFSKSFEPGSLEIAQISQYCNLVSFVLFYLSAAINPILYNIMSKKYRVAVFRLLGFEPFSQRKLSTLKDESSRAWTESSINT
Experimental: Receptor-Ligand Binding Assay
Competitive binding assays were run at the Lawson Health Research Institute at St. Joseph's Health Care in London. […] To begin with, a fresh solution of binding buffer (50 ml) was made up by adding HEPES (0.3 g, 25 mM), MgCl2 (0.051 g, 5 mM), CaCl2 (7.4×10^−3 g, 1 mM), EDTA (0.015 g, 2.5 mM) and BSA (0.2 g, 0.4%) to distilled H2O. The resultant solution was mixed over gentle heat. The pH was then adjusted to 7.4 and the solution filtered. Two miniature complete protease inhibitor tablets were then added and the final buffer solution kept on ice.
After the buffer had been made, assay tubes were labelled and kept on ice during the setup. To assay tubes 1-21, 25-27 and 28-30 was added binding buffer (200 μl, 230 μl and 300 μl respectively). No buffer was added to tubes 22-24. An aliquot of frozen cells was thawed to room temperature, centrifuged (3000×g, 10 mins, room temperature) and the subsequent cell pellet re-suspended in binding buffer (2 ml) and placed on ice. Cells (50 μl) were then added to assay tubes 1-21 and 25-27. Cold peptide was then prepared. This was carried out by adding stock peptide (20 μl) to binding buffer (180 μl) to make a peptide solution of 10^−4M concentration. Binding buffer (180 μl) was then added to assay tubes labelled 10^−5 to 10^−11. A series of dilutions was then made in order to acquire 10^−5 to 10^−11M concentrations. Cold peptide (30 μl) was then added to the corresponding assay tubes in triplicate.
All assay tubes were then vortexed, capped and immediately agitated (550 rpm, 20 mins, 37° C.). After 20 minutes, tubes 1-21 and 25-27 were spun in a large centrifuge (2800 rpm, 2 mins, 4° C.). The solution in all of the tubes was then transferred to Eppendorf tubes (0.5 ml), further binding buffer added (200 μl), the solutions mixed by pipetting and transferred to 0.5 ml tubes. The tubes were then spun again (13 000×g, 5 mins, 4° C.) and placed on ice. The supernatant was removed and the cell pellet rinsed with ice-cold Tris-HCl (200 μl, 50 mM, pH 7.4) and the tubes mixed by inversion. Tubes were spun a final time (13,000×g, 5 mins, 4° C.), cooled on ice and supernatant removed. The tubes were then placed in 12×75 mm assay tubes and counted using a gamma counter (see protocol 3). The binding assay may be summarized as follows:
Competitive binding assays were run on the compounds of Table 2 as described in Example 1. The formulas of the compounds of Table 2 are illustrated in FIGS. 49 and 50.

`CC(C)(N)C(=O)N[C@@H](Cc1c[nH]cn1)C(=O)N[C@H](Cc1ccc2ccccc2c1)C(=O)N[C@H](Cc1ccccc1)C(=O)N[C@@H](CCCCNC(=O)c1ccc(F)cc1)C(N)=O` [4-FB-Ipamorelin, H-Aib-His-D-2-Nal-D-Phe-Lys(4-FB)-NH2] (H-[Aib]H[d2Nal][dF]K(Benzoyl(4-F))-NH2) and `CC(C)(N)C(=O)N[C@@H](Cc1c[nH]cn1)C(=O)N[C@H](Cc1ccc2ccccc2c1)C(=O)N[C@H](Cc1cccs1)C(=O)N[C@@H](CCCCNC(=O)c1ccc(F)cc1)C(N)=O` [Thi-4-FB-Ipamorelin, H-Aib-His-D-2-Nal-D-2-Thi-Lys(4-FB)-NH2] (H-[Aib]H[d2Nal][d2Thi]K(Benzoyl(4-F))-NH2) are within 1.5-fold of each other in IC50: 170 nM for the first, 161 nM for the second.

Going from `NC(=O)[C@H](CCCCNC(=O)c1ccc(F)cc1)NC(=O)[C@H](Cc1ccccc1)NC(=O)[C@@H](Cc1ccc2ccccc2c1)NC(=O)[C@@H](Cc1ccc2ccccc2c1)NC(=O)C1CCNCC1` [Compound 4-FB-G-7039, H-Inp-D-2-Nal-D-2-Nal-Phe-Lys(4-FB)-NH2] (H-[Inp][d2Nal][d2Nal]FK(Benzoyl(4-F))-NH2) to `NC(=O)[C@H](CCCCNC(=O)c1ccc(F)cc1)NC(=O)[C@H](Cc1cccc2ccccc12)NC(=O)[C@@H](Cc1ccc2ccccc2c1)NC(=O)[C@@H](Cc1ccc2ccccc2c1)NC(=O)C1CCNCC1` [MMF-01-115-H, H-Inp-D-2-Nal-D-2-Nal-1-Nal-Lys(4-FB)-NH2] (H-[Inp][d2Nal][d2Nal][1Nal]K(Benzoyl(4-F))-NH2), the IC50 falls from 242 nM to 68.8 nM (3.5-fold).

Compared with `C[C@H](NC(=O)[C@@H](Cc1c[nH]c2ccccc12)NC(=O)[C@@H](N)Cc1c[nH]cn1)C(=O)N[C@@H](Cc1c[nH]c2ccccc12)C(=O)N[C@H](Cc1ccccc1)C(=O)N[C@@H](CCCCNC(=O)c1ccc(F)cc1)C(N)=O` [Compound 4-FB-GHRP-6, H-His-D-Trp-Ala-Trp-D-Phe-Lys(4-FB)-NH2] (H-H[dW]AW[dF]K(Benzoyl(4-F))-NH2), `C[C@H](NC(=O)[C@@H](Cc1c[nH]c2ccccc12)NC(=O)[C@@H](N)Cc1c[nH]cn1)C(=O)N[C@@H](Cc1c[nH]c2ccccc12)C(=O)N[C@H](Cc1ccccc1)C(=O)N[C@@H](CNC(=O)c1ccc(F)cc1)C(N)=O` [Dpr-4-FB-GHRP-6, H-His-D-Trp-Ala-Trp-D-Phe-Dpr(4-FB)-NH2] (H-H[dW]AW[dF][Dap](Benzoyl(4-F))-NH2) is 2.8-fold higher in IC50: 384 nM for the first, 1060 nM for the second. The first is the more potent here.

Compared with `NCCCC[C@H](NC(=O)[C@H](Cc1ccccc1)NC(=O)[C@@H](Cc1ccc2ccccc2c1)NC(=O)[C@@H](Cc1ccc2ccccc2c1)NC(=O)C1CCNCC1)C(N)=O` [Compound G-7039, H-Inp-D-2-Nal-D-2-Nal-Phe-Lys-NH2, reference compound] (H-[Inp][d2Nal][d2Nal]FK-NH2), `NCCCC[C@H](NC(=O)[C@H](Cc1cccc2ccccc12)NC(=O)[C@@H](Cc1ccc2ccccc2c1)NC(=O)[C@@H](Cc1ccc2ccccc2c1)NC(=O)C1CCNCC1)C(N)=O` [MMF-01-113-G, H-Inp-D-2-Nal-D-2-Nal-1-Nal-Lys-NH2] (H-[Inp][d2Nal][d2Nal][1Nal]K-NH2) is 5.3-fold higher in IC50: 5.21 nM for the first, 27.6 nM for the second.

Going from `C[C@H](N)C(=O)N[C@@H](Cc1c[nH]cn1)C(=O)N[C@H](Cc1ccc2ccccc2c1)C(=O)N[C@@H](C)C(=O)N[C@@H](Cc1c[nH]c2ccccc12)C(=O)N[C@H](Cc1ccccc1)C(=O)N[C@@H](CCCCN)C(N)=O` [GHRP-1, H-Ala-His-D-2-Nal-Ala-Trp-D-Phe-Lys-NH2, reference compound] (H-AH[d2Nal]AW[dF]K-NH2) to `C[C@H](NC(=O)[C@@H](Cc1ccc2ccccc2c1)NC(=O)[C@@H](C)N)C(=O)N[C@@H](Cc1c[nH]c2ccccc12)C(=O)N[C@H](Cc1ccccc1)C(=O)N[C@@H](CCCCN)C(N)=O` [GHRP-2, H-D-Ala-D-2-Nal-Ala-Trp-D-Phe-Lys-NH2, reference compound] (H-[dA][d2Nal]AW[dF]K-NH2), the IC50 rises from 181 nM to 449 nM (2.5-fold). The first is the more potent here.

First: NC(=O)[C@H](CCCCNC(=O)c1ccc(F)cc1)NC(=O)[C@@H](Cc1ccccc1)NC(=O)[C@@H](Cc1ccc2ccccc2c1)NC(=O)[C@H](Cc1c[nH]cn1)NC(=O)C1CCNCC1 [Inp-4-FB-Ipamorelin, H-Inp-His-D-2-Nal-D-Phe-Lys(4-FB)-NH2] (H-[Inp]H[d2Nal][dF]K(Benzoyl(4-F))-NH2)
Second: NC(=O)[C@H](CCCCNC(=O)c1ccc(F)cc1)NC(=O)[C@@H](Cc1ccc2ccccc2c1)NC(=O)[C@@H](Cc1ccc2ccccc2c1)NC(=O)[C@H](Cc1c[nH]cn1)NC(=O)C1CCNCC1 [MMF-01-140-H, H-Inp-His-D-2-Nal-D-2-Nal-Lys(4-FB)-NH2] (H-[Inp]H[d2Nal][d2Nal]K(Benzoyl(4-F))-NH2)
The IC50 of the first is 2.8-fold lower: 688 nM for the first, 1920 nM for the second. The first is the more potent here.

Going from `NC(=O)[C@H](CCCCNC(=O)c1ccc(F)cc1)NC(=O)[C@@H](Cc1cccs1)NC(=O)[C@@H](Cc1ccc2ccccc2c1)NC(=O)[C@H](Cc1c[nH]cn1)NC(=O)C1CCNCC1` [Inp-Thi-4-FB-Ipamorelin, H-Inp-His-D-2-Nal-D-2-Thi-Lys(4-FB)-NH2] (H-[Inp]H[d2Nal][d2Thi]K(Benzoyl(4-F))-NH2) to `CC(F)C(=O)NCCCC[C@H](NC(=O)[C@H](CO)NC(=O)[C@@H](Cc1ccc2ccccc2c1)NC(=O)[C@@H](Cc1ccc2ccccc2c1)NC(=O)C1CCNCC1)C(N)=O` (stereo partly drawn) [TL-MF-2-2FP, H-Inp-(D-2-Nal)2-Ser-Lys(2-FP)-NH2] (H-[Inp][d2Nal][d2Nal]SK(Propanoyl(2-F))-NH2), the IC50 falls from 1170 nM to 60.3 nM (19-fold). The second is the more potent here.

Going from `CC(C)(N)C(=O)N[C@@H](Cc1c[nH]cn1)C(=O)N[C@H](Cc1ccc2ccccc2c1)C(=O)N[C@H](Cc1ccccc1)C(=O)N[C@@H](CCCCN)C(N)=O` [Ipamorelin, H-Aib-His-D-2-Nal-D-Phe-Lys-NH2, reference compound] (H-[Aib]H[d2Nal][dF]K-NH2) to `CC(F)C(=O)NCCCC[C@H](NC(=O)[C@H](Cc1ccc(O)cc1)NC(=O)[C@@H](Cc1ccc2ccccc2c1)NC(=O)[C@@H](Cc1ccc2ccccc2c1)NC(=O)C1CCNCC1)C(N)=O` (stereo partly drawn) [TL-MF-3-2FP, H-Inp-D-2-Nal-D-2-Nal-Tyr-Lys(2-FP)-NH2] (H-[Inp][d2Nal][d2Nal]YK(Propanoyl(2-F))-NH2), the IC50 falls from 483 nM to 0.283 nM (1700-fold). The second is the more potent here.

Compared with `CC(F)C(=O)NCCCC[C@H](NC(=O)[C@H](CO)NC(=O)[C@H](Cc1ccccc1)NC(=O)[C@@H](Cc1ccc2ccccc2c1)NC(=O)[C@@H](Cc1ccc2ccccc2c1)NC(=O)C1CCNCC1)C(N)=O` (stereo partly drawn) [TL-MF-4-2FP, H-Inp-(D-2-Nal)2-Phe-Ser-Lys(2-FP)-NH2] (H-[Inp][d2Nal][d2Nal]FSK(Propanoyl(2-F))-NH2), `CC(F)C(=O)NCCCC[C@H](NC(=O)[C@H](Cc1ccccc1)NC(=O)[C@H](CO)NC(=O)[C@@H](Cc1ccc2ccccc2c1)NC(=O)[C@@H](Cc1ccc2ccccc2c1)NC(=O)C1CCNCC1)C(N)=O` (stereo partly drawn) [TL-MF-5-2FP, H-Inp-(D-2-Nal)2-Ser-Phe-Lys(2-FP)-NH2] (H-[Inp][d2Nal][d2Nal]SFK(Propanoyl(2-F))-NH2) is 14-fold higher in IC50: 4.35 nM for the first, 62.9 nM for the second. The first is the more potent here.

target: Human recombinant ghrelin receptor (Homo sapiens, UniProt Q92847); assay: Calcium flux dose-response assay (FLIPR TETRA, EMD Millipore GPCRProfiler); format: cell-based; conditions: FIGS. 51 and 52, Example 3
Sequence (Q92847 whole entry): as above
Experimental: Another in vitro assay performed on the 4-fluorobenzoyl agonist [1-Nal^4,Lys^5(4-FB)]G-7039 and the [Lys^5(2-FP)]G-7039 agonist was a calcium flux dose-response assay. […] In this particular case, the biological effect of the peptidomimetic [1-Nal^4,Lys^5(4-FB)]G-7039 and the peptidomimetic [Lys^5(2-FP)]G-7039 is the release of intracellular calcium ions, a process which is detected by fluorescence using a […] instrument.
If the compound remained soluble 15 minutes after addition, samples were shipped to the EMD Millipore Corporation (15 Research Park Drive, St. Charles, Mo. 63304, USA). […] The agonist assay was performed for a total of 180 seconds. Each assay and assay concentration was performed in duplicate. The data acquired is presented in FIG. 51 ([1-Nal^4,Lys^5(4-FB)]G-7039) and FIG. 52 (Lys^5(2-FP)]G-7039).

In the case of `CC(F)C(=O)NCCCC[C@H](NC(=O)[C@H](Cc1ccccc1)NC(=O)[C@@H](Cc1ccc2ccccc2c1)NC(=O)[C@@H](Cc1ccc2ccccc2c1)NC(=O)C1CCNCC1)C(N)=O` (stereo partly drawn) [Compound 2-FP-G-7039, H-Inp-D-2-Nal-D-2-Nal-Phe-Lys(2-FP)-NH2] (H-[Inp][d2Nal][d2Nal]FK(Propanoyl(2-F))-NH2), the “EC50 value compared with ghrelin” value is reported as “below that of ghrelin”.
With `NC(=O)[C@H](CCCCNC(=O)c1ccc(F)cc1)NC(=O)[C@H](Cc1cccc2ccccc12)NC(=O)[C@@H](Cc1ccc2ccccc2c1)NC(=O)[C@@H](Cc1ccc2ccccc2c1)NC(=O)C1CCNCC1` [MMF-01-115-H, H-Inp-D-2-Nal-D-2-Nal-1-Nal-Lys(4-FB)-NH2] (H-[Inp][d2Nal][d2Nal][1Nal]K(Benzoyl(4-F))-NH2) the “EC50 value compared with ghrelin” value was “below that of ghrelin”.

same assay, conditions: chem-1 cells, Fluo-8 NW dye, duplicate; read-out: EC50, intracellular Ca2+ release

For `NC(=O)[C@H](CCCCNC(=O)c1ccc(F)cc1)NC(=O)[C@H](Cc1cccc2ccccc12)NC(=O)[C@@H](Cc1ccc2ccccc2c1)NC(=O)[C@@H](Cc1ccc2ccccc2c1)NC(=O)C1CCNCC1` [MMF-01-115-H, H-Inp-D-2-Nal-D-2-Nal-1-Nal-Lys(4-FB)-NH2] (H-[Inp][d2Nal][d2Nal][1Nal]K(Benzoyl(4-F))-NH2), the EC50 was 1.1 nM.

tested on: GH release; assay: not given; conditions: Elias et al., Endocrinology 1995, read-out: EC50, reported half-maximal effective concentration; cited from earlier work

In the case of `NCCCC[C@H](NC(=O)[C@H](Cc1ccccc1)NC(=O)[C@@H](Cc1ccc2ccccc2c1)NC(=O)[C@@H](Cc1ccc2ccccc2c1)NC(=O)C1CCNCC1)C(N)=O` [Compound G-7039, H-Inp-D-2-Nal-D-2-Nal-Phe-Lys-NH2, reference compound] (H-[Inp][d2Nal][d2Nal]FK-NH2), the EC50 is listed as 0.18 nM.
